Experimental data from US20060142287A1, “Use of a combination of dppe with other chemotherapeutic agents for the treatment of breast cancer” (priority 2002, published 2006).

System: patients with metastatic and/or recurrent breast cancer
Assay: Phase III clinical trial of DPPE/doxorubicin versus doxorubicin alone, overall survival
Assay type: in vivo, human
Description: In the treatment of stage I or II breast cancer, the diphenyl compound preferably is used in an amount of about 3 to about 10 mg/kg of patient, administered intravenously over a period of about 30 to about 90 minutes prior to administration of the chemotherapeutic agent(s) and continuing for the period of administration of the chemotherapeutic agent(s). In the specific Phase III clinical trial described herein conducted on patients with metastatic and/or recurrent breast cancer, there was employed 5.3 mg/kg of DPPE in the form of the base (equivalent to 6 mg/kg of DPPE in the form of its hydrochloride), administered intravenously as an aqueous solution thereof over 80 minutes, with the last twenty minutes being accompanied by infusion of the specific chemotherapeutic agent.
The chemotherapy agent active in breast cancer which is employed herein preferably is used in a total amount of about 50 to about 75 mg/M^2 of patient for doxorubicin or epirubicin, about 175 to about 225 mg/M^2 for Taxol and about 75 to about 100 mg/M^2 for Taxotere. In the specific Phase III clinical trial described herein conducted on patients with metastatic and/or recurrent breast cancer, there was employed 60 mg/M^2 of doxorubicin administered over the last 20 minutes of infusion of the DPPE solution.
Patients were treated with doxorubicin (DOX) alone or a combination of doxorubicin and DPPE. […]
The survival time for patients was determined for those patients with metastatic breast cancer receiving no prior chemotherapy treatment in relation to those who had received prior chemotherapy treatment, and for patients that had received no previous treatment type (namely, chemotherapy, radiotherapy and/or hormone treatment) and those who had received previous treatment. The survival times were determined for patients receiving the DPPE/DOX combination and DOX alone.

SMILES: COc1cccc2c1C(=O)c1c(O)c3c(c(O)c1C2=O)C[C@@](O)(C(=O)CO)C[C@@H]3O[C@H]1C[C@H](N)[C@H](O)[C@H](C)O1 [DOX, doxorubicin]
- median overall survival (patients with metastatic disease who had estrogen receptor-negative tumors, FIG. 3): 9.3 months
- median overall survival (patients with metastatic disease who had no previous chemotherapy, DPPE 5.3 mg/kg iv over 80 min, doxorubicin 60 mg/M^2 over last 20 min, FIG. 1): 16.2 months
- median overall survival (patients with metastatic disease who had no previous treatment (chemotherapy, radiotherapy and/or hormone treatment), FIG. 2): 15 months
